Results reported in the NIST ThermoML archive (doi:10.1021/je800150h).
± gives the expanded uncertainty stated by the source.

Details: 101 kPa, Liquid

Row | SMILES | mass density (278.1 K) | viscosity (278.1 K) | mass density (283.1 K) | viscosity (283.1 K) | viscosity (288.15 K) | viscosity (293.15 K) | viscosity (298.15 K) | viscosity (303.15 K) | mass density (308.15 K) | viscosity (308.15 K) | viscosity (313.15 K) | viscosity (318.15 K) | viscosity (323.15 K) | also measured
1 | CCO [ethanol] | 802.6 ± 3.4 kg/m3 | 1.629 ± 0.077 mPa·s | 798.4 ± 3.1 kg/m3 | 1.468 ± 0.07 mPa·s | 1.341 ± 0.065 mPa·s | 1.207 ± 0.059 mPa·s | 1.105 ± 0.054 mPa·s | 1.01 ± 0.05 mPa·s | 777.1 ± 3.2 kg/m3 | 0.92 ± 0.046 mPa·s | 0.84 ± 0.043 mPa·s | 0.772 ± 0.04 mPa·s | 0.713 ± 0.037 mPa·s | mass density (268.1 K): 811.1 ± 3.8 kg/m3; viscosity (268.1 K): 1.975 ± 0.093 mPa·s; mass density (273.1 K): 806.8 ± 3.6 kg/m3; viscosity (273.1 K): 1.775 ± 0.084 mPa·s; mass density (288.15 K): 794.2 ± 2.9 kg/m3; mass density (293.15 K): 789.9 ± 2.7 kg/m3; mass density (298.15 K): 785.7 ± 2.9 kg/m3; mass density (303.15 K): 781.4 ± 3.1 kg/m3; mass density (313.15 K): 772.8 ± 3.4 kg/m3; mass density (318.15 K): 767.9 ± 3.6 kg/m3; mass density (323.15 K): 763.4 ± 3.7 kg/m3
2 | O [water] | 999.9 ± 4.4 kg/m3 | 1.519 ± 0.072 mPa·s | 999.7 ± 4.2 kg/m3 | 1.308 ± 0.063 mPa·s | 1.14 ± 0.056 mPa·s | 1.005 ± 0.05 mPa·s | 0.894 ± 0.045 mPa·s | 0.799 ± 0.041 mPa·s | 994.1 ± 4.3 kg/m3 | 0.723 ± 0.038 mPa·s | 0.655 ± 0.035 mPa·s | 0.599 ± 0.032 mPa·s | 0.548 ± 0.03 mPa·s | –
